# Data: patent publication US20040102423A1, “Spironolactone and angiotensin II antagonist combination therapy for treatment of congestive heart failure” (G.D. Searle & Co., priority 1995, published 2004)
# Biological target: angiotensin II AT1 receptor
# Assay: Assay A: Angiotensin II binding activity, rat uterine membrane preparation, 125I-AII displacement
# Method: Assay A: Antiotensin II Binding Activity
# Compounds of the invention were tested for ability to bind to the smooth muscle angiotensin II receptor using a rat uterine membrane preparation. […] Rat uterine membranes were prepared from fresh tissue. All procedures were carried out at 4° C. Uteri were stripped of fat and homogenized in phosphate-buffered saline at pH 7.4 containing 5 mM EDTA. The homogenate was centrifuged at 1500×g for 20 min., and the supernatant was recentrifuged at 100,000×g for 60 min. The pellet was resuspended in buffer consisting of 2 mM EDTA and 50 mM Tris-HCl (pH 7.5) to a final protein concentration of 4 mg/ml. […] The reaction was initiated by the addition of membrane protein and the mixture was incubated at 25° C. for 60 min. The incubation was terminated with ice-cold 50 mM Tris-HCl (pH 7.5) and the mixture was filtered to separate membrane-bound labelled peptide from the free ligand. The incubation tube and filter were washed with ice-cold buffer. Filters were assayed for radioactivity in a Micromedic gamma counter. Nonspecific binding was defined as binding in the presence of 10 μM of unlabelled AII. Specific binding was calculated as total binding minus nonspecific binding. […] Binding data were analyzed by a nonlinear least-squares curve fitting program.
structure (smiles),measurement,value
CCCCc1nc(CCCC)n(Cc2ccc(-c3ccccc3-c3nnn[nH]3)nc2)n1 [Compound 252],IC50,0.013 µM
CCCCc1nc(CN)nn1Cc1ccc(-c2ccccc2-c2nnn[nH]2)cc1 [Compound 38],IC50,0.01 µM
CCCCc1nn(CC(O)c2ccccc2)c(=O)n1Cc1ccc(-c2ccccc2-c2nn[nH]n2)cc1 (centres unmarked) [Compound 94],IC50,5.8 µM
CCCCc1nc(CCC(=O)O)n(Cc2ccc(-c3ccccc3-c3nnn[nH]3)cc2)n1 [Compound 75],IC50,0.57 µM
CCCCc1nc(CCCC)n(Cc2ccc(-c3ccncc3-c3nnn[nH]3)cc2)n1 [Compound 254],IC50,0.072 µM
CCCCc1nc(C(=O)N(C)C(C)(C)C)nn1Cc1ccc(-c2ccccc2-c2nnn[nH]2)nc1 [Compound 266],IC50,0.29 µM
CCCCc1nc(CC(C)(C)C)nn1Cc1ccc(-c2ccccc2-c2nnn[nH]2)nc1 [Compound 260],IC50,0.22 µM
CCCCc1cn(-c2ccccc2)c(=O)n1Cc1ccc(-c2ccccc2-c2nnn[nH]2)nc1 [Compound 226],IC50,0.093 µM
CCCCc1nc(Cc2ccccc2)nn1Cc1ccc(-c2ccccc2-c2nnn[nH]2)cc1 [Compound 55],IC50,0.08 µM
CCCCc1nn(CC(=O)c2ccccc2)c(=O)n1Cc1ccc(-c2ccccc2-c2nn[nH]n2)cc1 [Compound 93],IC50,0.48 µM
CCCCc1nc(-c2ccccc2)nn1Cc1ccc(-c2ccccc2-c2nnn[nH]2)nc1 [Compound 270],IC50,0.021 µM
CCCCc1nc(C(F)F)n(Cc2ccc(-c3ccccc3-c3nnn[nH]3)cc2)n1 [Compound 59],IC50,0.12 µM
CCCCc1nc(CF)nn1Cc1ccc(-c2ccccc2-c2nnn[nH]2)cc1 [Compound 70],IC50,0.044 µM
CCCCc1nc(CCCC2CCCCC2)n(Cc2ccc(-c3ccccc3-c3nnn[nH]3)cc2)n1 [Compound 68],IC50,0.0086 µM
CCCCc1nc(C(=O)CCC)nn1Cc1ccc(-c2ccccc2-c2nnn[nH]2)cc1 [Compound 42],IC50,0.37 µM
CCCCn1nc(C(OCC)OCC)nc1Cc1ccc(-c2ccccc2-c2nnn[nH]2)nc1 [Compound 187],IC50,0.77 µM
CCCCc1nc(CCc2ccccc2)n(Cc2ccc(-c3ccccc3-c3nnn[nH]3)nc2)n1 [Compound 265],IC50,0.11 µM
CCCCn1nc(C(OCCC)OCCC)nc1Cc1ccc(-c2ccccc2-c2nnn[nH]2)nc1 [Compound 188],IC50,0.14 µM
CCCCc1cn(CCC2CCCC2)c(=O)n1Cc1ccc(-c2ccccc2-c2nnn[nH]2)nc1 [Compound 222],IC50,0.005 µM
CCCCc1nc(CCCC)n(Cc2ccc(-c3ccccc3C(=O)O)nc2)n1 [Compound 251],IC50,0.025 µM
CCCCc1nc(C)n(Cc2ccc(-c3ccccc3-c3nnn[nH]3)cc2)n1 [Compound 44],IC50,0.016 µM
CCCCc1cn(CCCC)c(=O)n1Cc1ccc(-c2ccncc2-c2nnn[nH]2)cc1 [Compound 237],IC50,0.0036 µM
CCCCc1cn(C2CCCC2)c(=O)n1Cc1ccc(-c2ccccc2-c2nnn[nH]2)nc1 [Compound 218],IC50,0.009 µM
CCCCc1nc(CC(CC)CC)n(Cc2ccc(-c3ccccc3-c3nnn[nH]3)nc2)n1 [Compound 263],IC50,0.057 µM
CCCCc1cn(CC2CCCC2)c(=O)n1Cc1ccc(-c2ccccc2-c2nnn[nH]2)nc1 [Compound 219],IC50,0.014 µM
CCCn1nc(C(F)F)nc1Cc1ccc(-c2ccccc2-c2nnn[nH]2)nc1 [Compound 173],IC50,0.09 µM
CCCCc1nc2c(OCC)nnc(OCC)c2n1Cc1ccc(-c2ccccc2-c2nnn[nH]2)cc1 [Compound 123],IC50,0.05 µM
CCCCc1ncnn1Cc1ccc(-c2ccccc2C(=O)O)cc1 [Compound 29],IC50,0.16 µM
CCCCc1cn(CCCC)c(=O)n1Cc1ccc(-c2ccccc2-c2nnn[nH]2)nc1 [Compound 196],IC50,0.031 µM
CCCCn1nc(CCc2ccccc2)nc1Cc1ccc(-c2ccccc2-c2nnn[nH]2)nc1 [Compound 162],IC50,0.38 µM
CCCCn1nc(C(=O)NC)nc1Cc1ccc(-c2ccccc2-c2nnn[nH]2)nc1 [Compound 183],IC50,0.39 µM
CCCCc1nc(CCCC)n(Cc2ccc(-c3cccnc3-c3nnn[nH]3)cc2)n1 [Compound 253],IC50,0.0026 µM
CCCCc1nc(C(OC)OC)n(Cc2ccc(-c3ccccc3-c3nnn[nH]3)cc2)n1 [Compound 34],IC50,0.64 µM
CCCCc1nc(CCCC2CCCCC2)nn1Cc1ccc(-c2ccccc2-c2nnn[nH]2)cc1 [Compound 69],IC50,0.015 µM
CCCCc1nc2c(Cl)nnc(Cl)c2n1Cc1ccc(-c2ccccc2-c2nnn[nH]2)cc1 [Compound 121],IC50,0.046 µM
CCCCc1nc(-c2ccccc2)nn1Cc1ccc(-c2ccccc2-c2nnn[nH]2)cc1 [Compound 32],IC50,0.016 µM
CCCCc1nc(Cc2ccc(-c3ccccc3-c3nnn[nH]3)nc2)n(CCCC)n1 [Compound 161],IC50,0.028 µM
CCCCc1cn(C23CC4CC(CC(C4)C2)C3)c(=O)n1Cc1ccc(-c2ccccc2-c2nnn[nH]2)nc1 [Compound 225],IC50,0.16 µM
CCCCn1nc(C2OCC(C)(C)CO2)nc1Cc1ccc(-c2ccccc2-c2nnn[nH]2)nc1 [Compound 192],IC50,0.14 µM
CCCCc1nc(CCc2ccccc2)nn1Cc1ccc(-c2ccccc2-c2nnn[nH]2)nc1 [Compound 264],IC50,0.011 µM
CCCCn1nc(C(OC(C)C)OC(C)C)nc1Cc1ccc(-c2ccccc2-c2nnn[nH]2)nc1 [Compound 189],IC50,0.029 µM
CCCCCCCCc1nc(CCCC)n(Cc2ccc(-c3ccccc3-c3nnn[nH]3)cc2)n1 [Compound 40],IC50,0.083 µM
CCCCc1cn(C2C3CC4CC(C3)CC2C4)c(=O)n1Cc1ccc(-c2ccccc2-c2nnn[nH]2)nc1 (centres unmarked) [Compound 224],IC50,0.091 µM
CCCCc1nc(C)nn1Cc1ccc(-c2ccccc2-c2nnn[nH]2)cc1 [Compound 43],IC50,0.019 µM
CCCCc1cn(CC(C)(C)C)c(=O)n1Cc1ccc(-c2ccccc2-c2nnn[nH]2)nc1 [Compound 213],IC50,0.051 µM
CCCCc1cn(-c2c(C)cccc2Cl)c(=O)n1Cc1ccc(-c2ccccc2-c2nnn[nH]2)nc1 [Compound 242],IC50,0.11 µM
CCCCn1nc(C(=O)N(C)C(C)(C)C)nc1Cc1ccc(-c2ccccc2-c2nnn[nH]2)nc1 [Compound 182],IC50,0.059 µM
CCCCc1nc(C(=O)Cc2ccccc2)nn1Cc1ccc(-c2ccccc2-c2nnn[nH]2)cc1 [Compound 61],IC50,0.11 µM
CCCCn1nc(CCc2cccs2)nc1Cc1ccc(-c2ccccc2-c2nnn[nH]2)nc1 [Compound 164],IC50,1.7 µM
CCCCc1nc(C(F)(F)CCC)nn1Cc1ccc(-c2ccccc2-c2nnn[nH]2)cc1 [Compound 21],IC50,0.087 µM
CCCCc1nc(C=O)nn1Cc1ccc(-c2ccccc2-c2nnn[nH]2)cc1 [Compound 60],IC50,2.2 µM
CCCCc1nc(C(=O)NC)n(Cc2ccc(-c3ccccc3-c3nnn[nH]3)nc2)n1 [Compound 269],IC50,0.0097 µM
CCCCn1nc(CCC)nc1Cc1ccc(-c2ccccc2-c2nnn[nH]2)nc1 [Compound 163],IC50,0.42 µM
CCCCn1nc(CCc2ccccc2)nc1Cc1ccc(-c2ccccc2-c2nnn[nH]2)cc1 [Compound 142],IC50,0.002 µM
CCCCc1nc(-c2ccccc2)n(Cc2ccc(-c3ccccc3-c3nnn[nH]3)cc2)n1 [Compound 33],IC50,0.63 µM
CCCCc1nc(Cc2ccc(-c3ccccc3-c3nnn[nH]3)nc2)n(CC(C)(C)C)n1 [Compound 195],IC50,0.034 µM
CCCCc1nc(CCC(C)C)n(Cc2ccc(-c3ccccc3-c3nnn[nH]3)cc2)n1 [Compound 27],IC50,0.18 µM
CCCc1cn(CCC)c(=O)n1Cc1ccc(-c2ccccc2-c2nnn[nH]2)nc1 [Compound 197],IC50,0.014 µM
CCCCc1cn(-c2c(C)cc(C)cc2C)c(=O)n1Cc1ccc(-c2ccccc2-c2nnn[nH]2)nc1 [Compound 243],IC50,0.25 µM
CCCCc1nc(C23CC4CC(CC(C4)C2)C3)n(Cc2ccc(-c3ccccc3-c3nnn[nH]3)cc2)n1 [Compound 66],IC50,0.012 µM
CCCCc1nc(CC(OCC)OCC)n(Cc2ccc(-c3ccccc3-c3nnn[nH]3)cc2)n1 [Compound 48],IC50,0.68 µM
CCCCc1cn(CCC(C)(C)C)c(=O)n1Cc1ccc(-c2ccccc2-c2nnn[nH]2)nc1 [Compound 214],IC50,0.065 µM
CCCCc1nc(C(F)(F)CCC)n(Cc2ccc(-c3ccccc3-c3nnn[nH]3)nc2)n1 [Compound 259],IC50,0.054 µM
CCCCc1nc2c(O)nnc(O)c2n1Cc1ccc(-c2ccccc2-c2nnn[nH]2)cc1 [Compound 122],IC50,0.046 µM
CCCCc1cn(-c2ccccc2C(C)(C)C)c(=O)n1Cc1ccc(-c2ccccc2-c2nnn[nH]2)nc1 [Compound 240],IC50,0.12 µM
CCCCc1nc(CCCO)nn1Cc1ccc(-c2ccccc2-c2nnn[nH]2)cc1 [Compound 56],IC50,0.005 µM
CCCc1nc(CCC)n(Cc2ccc(-c3ccccc3-c3nnn[nH]3)cc2)n1 [Compound 23],IC50,0.43 µM
C[C@]12CCC(=O)C=C1C1CC1[C@H]1[C@@H]3CC[C@@](O)(CCC(=O)O)[C@@]3(C)CC3O[C@]312 (some centres unmarked) [Compound 8],IC50,17 µM
CCCCc1nc(CC(C)(C)C)n(Cc2ccc(-c3ccccc3-c3nnn[nH]3)nc2)n1 [Compound 261],IC50,0.018 µM
CCCCc1cn(CCC)c(=O)n1Cc1ccc(-c2ccccc2-c2nnn[nH]2)nc1 [Compound 207],IC50,0.099 µM
CCCCc1cn(CC(CC)CC)c(=O)n1Cc1ccc(-c2ccccc2-c2nnn[nH]2)nc1 [Compound 215],IC50,0.045 µM
CCCCc1cn(-c2c(CC)cccc2CC)c(=O)n1Cc1ccc(-c2ccccc2-c2nnn[nH]2)nc1 [Compound 245],IC50,0.098 µM
CCCCc1nc(CCC(C)C)nn1Cc1ccc(-c2ccccc2-c2nnn[nH]2)cc1 [Compound 28],IC50,0.57 µM
CCCCc1nc(C(=O)CCC)nn1Cc1ccc(-c2ccccc2-c2nnn[nH]2)cc1 [Compound 41],IC50,3.7 µM
